Values quoted from earlier work in US6470305B1, “Chemical analysis by morphological similarity” (priority 1998, dated 2002).

Target: CDK2 (Homo sapiens, UniProt P24941)
Conditions: weak inhibitor; value from Kim et al., Prog Cell Cycle Res (1996); read-out: IC50 versus CDK2

For CC(C)=CCNc1ncnc2nc[nH]c12 [IPA, isopentenyl adenine], the IC50 is given as 50 µM.
